According to US11040031B2, “Pyrazole derivatives as MALT1 inhibitors” (Janssen Pharmaceutica NV, priority 2018, dated 2021):
Read-outs that look alike come from different tables or passages of the source.

What was measured:
[1] = test system: OCI-Ly3 ABC-DLBCL cell line; assay: 4-day proliferation assay OCI-Ly3; format: cell-based; conditions: Homo sapiens, read-out: Anti-proliferation: OCI-LY-3 IC50
Description: To assess anti-proliferative effects, MALT1 inhibitor test compounds were tested in 4-day proliferation assays using three different DLBCL cell lines.
Cells should be kept between 0.5-2.5 million cells per mL during culturing and cells should be supplemented every 2-3 days with fresh 50 μM beta-mercaptoenthanol. No beta-mercaptoethanol is used during the proliferation assay. OCI-Ly7 cells were propagated in IMDM (ThermoFisher) supplemented with 10% fetal bovine serum (HyClone), 2 mM L-glutamine (Sigma Aldrich) and 50 μg/mL Gentamycin. Cell passage numbers should not exceed 30.
10,000 TMD8, 10,000 OCI-Ly3 or 2,000 OCI-Ly7 cells were seeded in 100 μL media per well and incubated for 4 days at 37° C. and 5% CO2. Cell plating numbers were chosen based on growth curves to ensure linear cell growth. After 4 days of incubation 50 μl CellTiterGLO reagent (Promega) were added to each well and luminescence was measured on the Envision after 10 min of incubation at room temperature.

[2] = target: T1, full-length MALT1 protein (Strep-MALT1(1-824)-His) (Homo sapiens, UniProt Q9UDY8); assay: biochemical;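 further: fluorogenic LRSR-AMC substrate cleavage by MALT1, 50 min compound preincubation then 4 h reaction at RT, 11-point dilution from 30 µM, scaled between enzyme-free and untreated enzyme controls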
T1 sequence (Q9UDY8 1-824): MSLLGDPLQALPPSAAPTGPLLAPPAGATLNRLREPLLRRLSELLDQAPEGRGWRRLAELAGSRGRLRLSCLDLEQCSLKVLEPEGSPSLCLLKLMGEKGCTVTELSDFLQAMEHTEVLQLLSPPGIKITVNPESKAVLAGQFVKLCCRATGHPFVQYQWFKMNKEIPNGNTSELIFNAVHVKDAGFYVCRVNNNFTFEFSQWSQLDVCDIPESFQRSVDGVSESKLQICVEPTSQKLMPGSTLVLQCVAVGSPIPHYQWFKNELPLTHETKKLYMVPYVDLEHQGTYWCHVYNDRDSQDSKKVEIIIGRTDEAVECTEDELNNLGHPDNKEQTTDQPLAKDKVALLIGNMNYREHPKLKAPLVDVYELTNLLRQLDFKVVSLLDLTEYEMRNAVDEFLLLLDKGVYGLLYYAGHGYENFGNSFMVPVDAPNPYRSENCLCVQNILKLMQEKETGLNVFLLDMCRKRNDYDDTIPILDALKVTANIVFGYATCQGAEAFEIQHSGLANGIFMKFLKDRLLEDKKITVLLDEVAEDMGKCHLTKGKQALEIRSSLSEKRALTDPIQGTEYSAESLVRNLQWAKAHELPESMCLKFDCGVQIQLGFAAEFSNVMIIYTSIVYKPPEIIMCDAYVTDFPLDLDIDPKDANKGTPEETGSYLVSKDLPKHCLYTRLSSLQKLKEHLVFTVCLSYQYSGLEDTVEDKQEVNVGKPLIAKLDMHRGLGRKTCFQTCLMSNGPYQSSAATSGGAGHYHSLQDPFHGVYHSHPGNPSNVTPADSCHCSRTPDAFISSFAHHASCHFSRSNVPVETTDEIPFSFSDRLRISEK
Description: MALT1 protease activity was assessed in an in vitro assay using a tetrapeptide as substrate and full-length MALT1 protein (Strep-MALT1(1-824)-His) purified from baculovirus-infected insect cells. The tetrapeptide LRSR is coupled to AMC (7-amino-4-methylcoumarin) and provides a quenched, fluorescent substrate for the MALT1 protease (SM Biochemicals). Cleavage of AMC from the Arginine residue results in an increase in coumarin fluorescence measured at 460 nm (excitation 355 nm). […] Test compounds were spotted at 50 nL in 100% DMSO per well of a black 384-Proxiplate (Perkin Elmer). Test compound concentrations ranged from 30 μM to 0.5 nM using 11 dilution steps (1:3). Background signal was measured from control wells containing assay buffer without enzyme which functions as low control (LC). High control (HC) values were generated using the reaction with enzyme but no compound treatment. Compounds were pre-incubated with MALT1 enzyme for 50 minutes at RT. Substrate was added subsequently and fluorescence was measured in Labsystems fluoroskan at excitation 355 nm and emission 460 nm to determine time 0. The reaction was subsequently incubated for 4 h at RT and fluorescence was measured. […] The enzyme reaction was linear during the 4 h incubation period.
IC50 values were calculated using the following formula (Z prime should be >0.5):
From this an IC50 value (inhibitory concentration causing 50% inhibition) can be obtained. An estimate of the slope of the plot in terms of the Hill coefficient was also obtained.
With y=estimated response • UB=upper bound • LB=lower bound • h=hill

[3] = test system: Secretion of IL10 by OCI-LY3 ABC-DLBCL cells; assay: Human IL10 Mesoscale assay (OCI-LY3); format: cell-based; conditions: read-out: Human IL10 Mesoscale assay (OCI-LY3)
In short: (§1)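 TMD8 or OCI-LY3 ABC-DLBCL cells incubated with compound 24 h at 37° C without beta-mercaptoethanol. Secreted IL6 and IL10 in supernatant quantified by MSD electrochemiluminescence immunoassay; DMSO wells define maximum signal.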

[4] = test system: Secretion of IL6 by OCI-LY3 ABC-DLBCL cells; assay: Human IL6 Mesoscale assay (OCI-LY3); format: cell-based; conditions: read-out: Human IL6 Mesoscale assay (OCI-LY3)
In short: as §1

[5] = 96 h, 10,000 OCI-Ly3 cells per well, 4 days, CellTiterGLO
[6] = OCI-LY3 cells, 24 h incubation, supernatant, MSD V-Plex

IC50 [1, 5] [nM]	IC50 [2] [nM]	IC50 [3, 6] [nM]	IC50 [4, 6] [nM]	IC50 ([3]; OCI-Ly3, 24 h) [nM]	IC50 ([4]; OCI-Ly3, 24 h) [nM]	IC50 ([1]; OCI-Ly3, 96 h) [nM]	SMILES
1070	54	–	–	–	–	–	N#Cc1cc(NC(=O)c2cnn(-c3ccc(F)cc3Br)c2C(F)(F)F)cnc1-n1nccn1 [Cpd 50, 1-(2-bromo-4-fluorophenyl)-N-(5-cyano-6-(2H-1,2,3-triazol-2-yl)pyridin-3-yl)-5-(trifluoromethyl)-1H-pyrazole-4-carboxamide]
851	54	71	98	–	–	–	N#Cc1cc(NC(=O)c2cnn(-c3ccc(F)cc3Cl)c2C(F)(F)F)cnc1-n1nccn1 [Cpd 51, 1-(2-chloro-4-fluorophenyl)-N-(5-cyano-6-(2H-1,2,3-triazol-2-yl)pyridin-3-yl)-5-(trifluoromethyl)-1H-pyrazole-4-carboxamide]
1620	89	–	–	–	–	–	COc1cc(F)ccc1-n1ncc(C(=O)Nc2cnc(-n3nccn3)c(C#N)c2)c1C(F)(F)F [Cpd 54, N-(5-cyano-6-(2H-1,2,3-triazol-2-yl)pyridin-3-yl)-1-(4-fluoro-2-methoxyphenyl)-5-(trifluoromethyl)-1H-pyrazole-4-carboxamide]
3390	62	–	–	–	–	–	Cc1ccccc1-n1ncc(C(=O)Nc2cnc(-n3nccn3)c(C#N)c2)c1C(F)(F)F [Cpd 55, N-(5-cyano-6-(2H-1,2,3-triazol-2-yl)pyridin-3-yl)-1-(o-tolyl)-5-(trifluoromethyl)-1H-pyrazole-4-carboxamide]
–	78	–	–	363	389	5010	N#Cc1cc(NC(=O)c2cnn(-c3ccnc(N)c3Cl)c2C(F)(F)F)cnc1-n1nccn1 [Cpd 56, 1-(2-amino-3-chloropyridin-4-yl)-N-(5-cyano-6-(2H-1,2,3-triazol-2-yl)pyridin-3-yl)-5-(trifluoromethyl)-1H-pyrazole-4-carboxamide]
741	71	151	178	–	–	–	N#Cc1cc(NC(=O)c2cnn(-c3ccc(F)c(F)c3Cl)c2C(F)(F)F)cnc1-n1nccn1 [Cpd 60, 1-(2-chloro-3,4-difluorophenyl)-N-(5-cyano-6-(2H-1,2,3-triazol-2-yl)pyridin-3-yl)-5-(trifluoromethyl)-1H-pyrazole-4-carboxamide]
1860	78	–	–	–	–	–	N#Cc1cc(NC(=O)c2cnn(-c3cccc(F)c3Cl)c2C(F)(F)F)cnc1-n1nccn1 [Cpd 61, 1-(2-chloro-3-fluorophenyl)-N-(5-cyano-6-(2H-1,2,3-triazol-2-yl)pyridin-3-yl)-5-(trifluoromethyl)-1H-pyrazole-4-carboxamide]
1550	54	–	–	–	–	–	Cc1cc(F)ccc1-n1ncc(C(=O)Nc2cnc(-n3nccn3)c(C#N)c2)c1C(F)(F)F [Cpd 64, N-(5-cyano-6-(2H-1,2,3-triazol-2-yl)pyridin-3-yl)-1-(4-fluoro-2-methylphenyl)-5-(trifluoromethyl)-1H-pyrazole-4-carboxamide]
2240	129	–	–	–	–	–	O=C(Nc1cnc(-n2nccn2)c(Cl)c1)c1cnn(-c2ccc(F)cc2Br)c1C(F)(F)F [Cpd 83, 1-(2-bromo-4-fluorophenyl)-N-(5-chloro-6-(2H-1,2,3-triazol-2-yl)pyridin-3-yl)-5-(trifluoromethyl)-1H-pyrazole-4-carboxamide]
407	288	–	–	–	–	–	O=C(Nc1cnc(-n2nccn2)c(Cl)c1)c1cnn(-c2ccc(F)cc2F)c1C(F)(F)F [Cpd 117, N-(5-chloro-6-(2H-1,2,3-triazol-2-yl)pyridin-3-yl)-1-(2,4-difluorophenyl)-5-(trifluoromethyl)-1H-pyrazole-4-carboxamide]

Continued, molecule first:

SMILES	IC50 [1, 5] [nM]	IC50 [2] [nM]	IC50 [3, 6] [nM]	IC50 [4, 6] [nM]	IC50 ([3]; OCI-Ly3, 24 h) [nM]	IC50 ([4]; OCI-Ly3, 24 h) [nM]	IC50 ([1]; OCI-Ly3, 96 h) [nM]
O=C(Nc1cnc(-n2nccn2)c(Cl)c1)c1cnn(-c2ccnc3c2OCO3)c1C(F)(F)F [Cpd 52, 1-([1,3]dioxolo[4,5-b]pyridin-7-yl)-N-(5-chloro-6-(2H-1,2,3-triazol-2-yl)pyridin-3-yl)-5-(trifluoromethyl)-1H-pyrazole-4-carboxamide]	2400	55	56	120	–	–	–
Nc1nccc(-n2ncc(C(=O)Nc3cnc(-n4nccn4)c(Cl)c3)c2C(F)(F)F)c1Cl [Cpd 57, 1-(2-amino-3-chloropyridin-4-yl)-N-(5-chloro-6-(2H-1,2,3-triazol-2-yl)pyridin-3-yl)-5-(trifluoromethyl)-1H-pyrazole-4-carboxamide]	–	107	–	–	117	162	1200
O=C(Nc1cnc(-n2nccn2)c(Cl)c1)c1cnn(-c2cccc3c2OC(F)(F)O3)c1C(F)(F)F [Cpd 58, N-(5-chloro-6-(2H-1,2,3-triazol-2-yl)pyridin-3-yl)-1-(2,2-difluorobenzo[d][1,3]dioxol-4-yl)-5-(trifluoromethyl)-1H-pyrazole-4-carboxamide]	7240	145	195	407	–	–	–
O=C(Nc1cnc(-n2nccn2)c(Cl)c1)c1cnn(-c2cccc(F)c2Cl)c1C(F)(F)F [Cpd 82, 1-(2-chloro-3-fluorophenyl)-N-(5-chloro-6-(2H-1,2,3-triazol-2-yl)pyridin-3-yl)-5-(trifluoromethyl)-1H-pyrazole-4-carboxamide]	3390	162	–	–	–	–	–
Cc1cc(F)cnc1-n1ncc(C(=O)Nc2cnc(-n3nccn3)c(Cl)c2)c1C(F)(F)F [Cpd 112, N-(5-chloro-6-(2H-1,2,3-triazol-2-yl)pyridin-3-yl)-1-(5-fluoro-3-methylpyridin-2-yl)-5-(trifluoromethyl)-1H-pyrazole-4-carboxamide]	–	457	–	–	–	–	724
N#Cc1cc(NC(=O)c2cnn(-c3cccc4c3CCNC4)c2C(F)(F)F)cnc1-n1nccn1 [Cpd 129, N-(5-cyano-6-(2H-1,2,3-triazol-2-yl)pyridin-3-yl)-1-(1,2,3,4-tetrahydroisoquinolin-5-yl)-5-(trifluoromethyl)-1H-pyrazole-4-carboxamide]	1410	2400	–	–	–	–	–
CN1CCCc2cccc(-n3ncc(C(=O)Nc4cnc(-n5nccn5)c(C#N)c4)c3C(F)(F)F)c21 [Cpd 131, N-(5-cyano-6-(2H-1,2,3-triazol-2-yl)pyridin-3-yl)-1-(1-methyl-1,2,3,4-tetrahydroquinolin-8-yl)-5-(trifluoromethyl)-1H-pyrazole-4-carboxamide]	19100	776	–	–	–	–	–
O=C1NCc2c1cccc2-n1ncc(C(=O)Nc2cnc(-n3nccn3)c(Cl)c2)c1C(F)(F)F [Cpd 133, N-(5-chloro-6-(2H-1,2,3-triazol-2-yl)pyridin-3-yl)-1-(1-oxoisoindolin-4-yl)-5-(trifluoromethyl)-1H-pyrazole-4-carboxamide]	5500	155	–	–	–	–	–
Cc1cc(-n2nccn2)c(C#N)cc1NC(=O)c1cnn(-c2ccc(F)c(N)n2)c1C(F)(F)F [Cpd 195, 1-(6-amino-5-fluoropyridin-2-yl)-N-(5-cyano-2-methyl-4-(2H-1,2,3-triazol-2-yl)phenyl)-5-(trifluoromethyl)-1H-pyrazole-4-carboxamide]	–	1200	–	–	1860	5370	–
Cc1nc(-n2nccn2)c(C#N)cc1NC(=O)c1cnn(-c2ccc(Cl)c(N)n2)c1C(F)(F)F [Cpd 200, 1-(6-amino-5-chloropyridin-2-yl)-N-(5-cyano-2-methyl-6-(2H-1,2,3-triazol-2-yl)pyridin-3-yl)-5-(trifluoromethyl)-1H-pyrazole-4-carboxamide]	–	275	245	794	–	–	–
